This passage reports T/C results from PubChem BioAssay AID248 (DTP/NCI, 2004).

Several values for one entry are separate records, joined by “and”; a condition that tells them apart may be missing. Equal entries are not always repeated. Toxic doses and inconclusive results are not listed. Numbered stars: 1 amine (or outer) side, 2 acyl side, 3 side chain; on linkers, the order of the positions; unused ones are H or OH. Bridge positions count the residues as written; N and C are the ends. Square brackets hold non-standard residues; d marks the D form. Peptide text beside a SMILES is read from it. I, II: the chains in the order shown. Actinocin(9to1) = Cc1c2oc3c(C)ccc(C(=O)[*:1])c3nc-2c(C(=O)[*:2])c(N)c1=O; X4 = O=C(C1CC(Cl)CN1[*:1])[*:2]; NMeV = CN[CH](C(=O)O)C(C)C; Sar = CNCC(=O)O

The subject of the test is L1210 leukemia ip in BDF1 mice, survival T/C. Briefly: NCI In Vivo Anticancer Drug Screen. Data for tumor model L1210 Leukemia (intraperitoneal) in B6D2F1 (BDF1) mice. Particulars: endpoint: mean survival time, higher = longer survival. The method in brief: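 Tumor cells were implanted, animals were treated, and survival was followed. The result divides the treated measurement by the vehicle-control measurement.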

The mark [1] stands for this setting: dose: 100.0 mg/kg/injection, schedule: Q01DX001 (ip), vehicle: saline.
Where [2] appears, read: dose: 200.0 mg/kg/injection, schedule: Q01DX001 (ip), vehicle: saline.
[3] abbreviates: dose: 400.0 mg/kg/injection, schedule: Q01DX001 (ip), vehicle: saline.
Setting [4] is: dose: 100.0 mg/kg/injection, schedule: Q01DX009 (ip), vehicle: Klucel (hydroxypropylcellulose) (HPC).

Take `O=NN(CCCl)C(=O)NC1CCC(CC(=O)O)CC1` (stereo not drawn): the T/C (dose: 3.5 mg/kg/injection, schedule: Q01DX001 (ip), vehicle: Klucel (hydroxypropylcellulose) (HPC)) is 114 % of control; the T/C (dose: 5.3 mg/kg/injection, schedule: Q01DX001 (ip), vehicle: Klucel (hydroxypropylcellulose) (HPC)) is 171 % of control; the T/C (dose: 12.0 mg/kg/injection, schedule: Q01DX001 (ip), vehicle: Klucel (hydroxypropylcellulose) (HPC)) was 235 % of control and 536 % of control; the T/C (dose: 15.0 mg/kg/injection, schedule: Q01DX001 (ip), vehicle: carboxymethylcellulose (CMC)) is 151 % of control and 178 % of control; the T/C (dose: 18.0 mg/kg/injection, schedule: Q01DX001 (ip), vehicle: Klucel (hydroxypropylcellulose) (HPC)) is 352 % of control and 377 % of control; the T/C (dose: 18.0 mg/kg/injection, schedule: Q01DX001 (ip), vehicle: carboxymethylcellulose (CMC)) was 403 % of control. Further, the T/C (dose: 23.0 mg/kg/injection, schedule: Q01DX001 (ip), vehicle: carboxymethylcellulose (CMC)) was 336 % of control and 351 % of control; the T/C (dose: 26.0 mg/kg/injection, schedule: Q01DX001 (ip), vehicle: Klucel (hydroxypropylcellulose) (HPC)) is 352 % of control and 439 % of control; the T/C (dose: 26.0 mg/kg/injection, schedule: Q01DX001 (ip), vehicle: carboxymethylcellulose (CMC)) was 454 % of control; the T/C (dose: 34.0 mg/kg/injection, schedule: Q01DX001 (ip), vehicle: carboxymethylcellulose (CMC)) was 445 % of control and 454 % of control; the T/C (dose: 40.0 mg/kg/injection, schedule: Q01DX001 (ip), vehicle: Klucel (hydroxypropylcellulose) (HPC)) was 319 % of control and 381 % of control; the T/C (dose: 40.0 mg/kg/injection, schedule: Q01DX001 (ip), vehicle: carboxymethylcellulose (CMC)) is 418 % of control. Moreover, the T/C (dose: 51.0 mg/kg/injection, schedule: Q01DX001 (ip), vehicle: carboxymethylcellulose (CMC)) is 413 % of control and 476 % of control; the T/C (dose: 60.0 mg/kg/injection, schedule: Q01DX001 (ip), vehicle: Klucel (hydroxypropylcellulose) (HPC)) was 111 % of control and 202 % of control; the T/C (dose: 60.0 mg/kg/injection, schedule: Q01DX001 (ip), vehicle: carboxymethylcellulose (CMC)) was 102 % of control; the T/C (dose: 77.0 mg/kg/injection, schedule: Q01DX001 (ip), vehicle: carboxymethylcellulose (CMC)) is 175 % of control and 258 % of control.
Turning to `C#CCC1CCCC/C1=N\Nc1ccc([N+](=O)[O-])cc1[N+](=O)[O-]` (stereo not drawn), the T/C is 96 % of control (dose: 100.0 mg/kg/injection, schedule: Q04DX002 (ip), vehicle: Klucel (hydroxypropylcellulose) (HPC)); 103 % of control (dose: 200.0 mg/kg/injection, schedule: Q04DX002 (ip), vehicle: Klucel (hydroxypropylcellulose) (HPC)); 92 % of control (dose: 400.0 mg/kg/injection, schedule: Q04DX002 (ip), vehicle: Klucel (hydroxypropylcellulose) (HPC)).
Take `CCOC(=O)c1ccc(N2C(=O)c3cccc4cccc(c34)C2=O)c([N+](=O)[O-])c1`: the T/C by setting is: (dose: 100.0 mg/kg/injection, schedule: Q04DX003 (ip), vehicle: saline with Tween-80) 97 % of control; (dose: 200.0 mg/kg/injection, schedule: Q04DX003 (ip), vehicle: saline with Tween-80) 93 % of control; (dose: 400.0 mg/kg/injection, schedule: Q04DX003 (ip), vehicle: saline with Tween-80) 95 % of control.
For the molecule `CCCCCCCNC(=S)NNC(=O)CCCC(=O)NNC(=S)NCCCCCCC`, the T/C runs as follows: (dose: 50.0 mg/kg/injection, schedule: Q01DX001 (ip), vehicle: saline) 98 % of control; under setting [1], 96 % of control; under setting [2], 96 % of control; under setting [3], 90 % of control.
In the case of `CS(=O)(=O)Oc1ccc2c(c1)CCC2`, the T/C is 104 % of control (dose: 100.0 mg/kg/injection, schedule: Q01DX001 (ip), vehicle: carboxymethylcellulose (CMC)); 101 % of control (dose: 200.0 mg/kg/injection, schedule: Q01DX001 (ip), vehicle: carboxymethylcellulose (CMC)); 95 % of control (dose: 400.0 mg/kg/injection, schedule: Q01DX001 (ip), vehicle: carboxymethylcellulose (CMC)).
With `OCC1C(CO)C2CC1C1N=NN(c3ccccc3)C21` (stereo not drawn), the T/C was 93 % of control (dose: 100.0 mg/kg/injection, schedule: Q04DX002 (ip), vehicle: saline with Tween-80); 90 % of control (dose: 200.0 mg/kg/injection, schedule: Q04DX002 (ip), vehicle: saline with Tween-80); 93 % of control (dose: 400.0 mg/kg/injection, schedule: Q04DX002 (ip), vehicle: saline with Tween-80).
Consider `CCOC(=O)c1c[nH]c2nc(SC)[nH]c(=O)c2c1=O`, for which the T/C (dose: 25.0 mg/kg/injection, schedule: Q01DX009 (ip), vehicle: Klucel (hydroxypropylcellulose) (HPC)) is 86 % of control; the T/C (dose: 25.0 mg/kg/injection, schedule: Q04DX003 (ip), vehicle: Klucel (hydroxypropylcellulose) (HPC)) is 104 % of control; the T/C (dose: 50.0 mg/kg/injection, schedule: Q01DX009 (ip), vehicle: Klucel (hydroxypropylcellulose) (HPC)) is 93 % of control; the T/C (dose: 50.0 mg/kg/injection, schedule: Q04DX003 (ip), vehicle: Klucel (hydroxypropylcellulose) (HPC)) is 103 % of control; the T/C (dose: 100.0 mg/kg/injection, schedule: Q01DX001 (ip), vehicle: Klucel (hydroxypropylcellulose) (HPC)) was 102 % of control; the T/C under setting [4] is 101 % of control. Besides, the T/C (dose: 100.0 mg/kg/injection, schedule: Q04DX003 (ip), vehicle: Klucel (hydroxypropylcellulose) (HPC)) is 101 % of control; the T/C (dose: 200.0 mg/kg/injection, schedule: Q01DX001 (ip), vehicle: Klucel (hydroxypropylcellulose) (HPC)) is 98 % of control; the T/C (dose: 400.0 mg/kg/injection, schedule: Q01DX001 (ip), vehicle: Klucel (hydroxypropylcellulose) (HPC)) is 107 % of control.
On to `COC1CCC=CO1` (stereo not drawn), for which the T/C (dose: 13.3 mg/kg/injection, schedule: Q01DX Z (ip), vehicle: saline) is 93 % of control; the T/C (dose: 20.0 mg/kg/injection, schedule: Q01DX Z (ip), vehicle: saline) was 105 % of control; the T/C (dose: 30.0 mg/kg/injection, schedule: Q01DX Z (ip), vehicle: saline) was 109 % of control.
Take `CCN(CC)CCCNC(c1ccc(OC)cc1)C(Cl)(Cl)Cl` (stereo not drawn): the T/C (dose: 75.0 mg/kg/injection, schedule: Q01DX001 (ip), vehicle: saline) was 90 % of control and the T/C (dose: 150.0 mg/kg/injection, schedule: Q01DX001 (ip), vehicle: saline) is 93 % of control.
Take `Cc1c2oc3c(C)ccc(C(=O)NC4C(=O)NC(C(C)C)C(=O)N5CC(Cl)CC5C(=O)N(C)CC(=O)N(C)C(C(C)C)C(=O)OC4C)c3nc-2c(C(=O)NC2C(=O)NC(C(C)C)C(=O)N3CC(Cl)CC3C(=O)N(C)CC(=O)N(C)C(C(C)C)C(=O)OC2C)c(N)c1=O` (stereo not drawn) (I: TV[X4][Sar][NMeV] / II: TV[X4][Sar][NMeV]; ester I:1-I:C, II:1-II:C; linker I:N-II:N via Actinocin(9to1); configuration not given here): the T/C is 117 % of control (dose: 200.0 micrograms/kg/injection, schedule: Q01DX009 (ip), vehicle: saline + alcohol); 123 % of control (dose: 300.0 micrograms/kg/injection, schedule: Q01DX009 (ip), vehicle: saline + alcohol); 124 % of control (dose: 600.0 micrograms/kg/injection, schedule: Q01DX009 (ip), vehicle: saline + alcohol); 156 % of control (dose: 800.0 micrograms/kg/injection, schedule: Q01DX009 (ip), vehicle: saline + alcohol); 122 % of control (dose: 800.0 micrograms/kg/injection, schedule: Q04DX003 (ip), vehicle: saline + alcohol); 121 % of control (dose: 4800.0 micrograms/kg/injection, schedule: Q04DX003 (ip), vehicle: saline + alcohol).
For `O=[N+]([O-])CC(Nc1ccc(Br)cc1)c1ccccc1` (stereo not drawn), the T/C is 95 % of control (dose: 67.0 mg/kg/injection, schedule: Q01DX009 (ip), vehicle: saline with Tween-80); 97 % of control (dose: 100.0 mg/kg/injection, schedule: Q01DX009 (ip), vehicle: saline with Tween-80); 100 % of control (dose: 150.0 mg/kg/injection, schedule: Q01DX009 (ip), vehicle: saline with Tween-80); 91 % of control (dose: 200.0 mg/kg/injection, schedule: Q01DX009 (ip), vehicle: saline with Tween-80); 86 % of control (dose: 400.0 mg/kg/injection, schedule: Q01DX009 (ip), vehicle: saline with Tween-80).
Regarding `Cc1cc(C)c(Br)c(C)c1C`, the T/C is 104 % of control under setting [1], 113 % of control under setting [2] and 116 % of control under setting [3].
In the case of `Cc1nccnc1Sc1ccc2ccccc2c1`, the T/C is 95 % of control under setting [4]; 92 % of control (dose: 200.0 mg/kg/injection, schedule: Q01DX009 (ip), vehicle: Klucel (hydroxypropylcellulose) (HPC)); 90 % of control (dose: 400.0 mg/kg/injection, schedule: Q01DX009 (ip), vehicle: Klucel (hydroxypropylcellulose) (HPC)).
